According to patent publication US11020395B2, “Cycloalkyl substituted triazole compounds as agonists of the APJ receptor” (AMGEN INC., priority 2016, dated 2021):

Target: human APJ receptor (Homo sapiens (Human), UniProt P35414)
Assay: [35S]GTPγS binding assay on membranes from CHO cells stably expressing human APJ receptor
Assay type: biochemical
Settings: [35S]GTPγS SPA, read-out: Activity hAPJ SPA EC50 IP
Method: [^35S]GTPγS Binding The human APJ receptor was cloned by polymerase chain reaction and the gene encoding the receptor was subcloned in pFLAG-CMV™-3 expression vector (Sigma, Saint Louis, Mo. USA) in-house at Amgen. A GTPγS binding assay was performed on membranes prepared from CHO cells stably expressing human APJ receptor. The optimum experimental conditions for the concentrations of GDP, MgCl2, and NaCl in the assay buffer were initially determined. […] Incubation was at RT for 90 min and the microplate was read using a ViewLux™ ultra HTS Microplate Imager (PerkinElmer, Inc.). All the results presented are means of several independent experiments and analyzed by non-linear regression methods using the commercially available program Prism (GraphPad, San Diego, Calif.) providing the EC50 values detailed in Table 25.

human APJ receptor, sequence (P35414 whole entry): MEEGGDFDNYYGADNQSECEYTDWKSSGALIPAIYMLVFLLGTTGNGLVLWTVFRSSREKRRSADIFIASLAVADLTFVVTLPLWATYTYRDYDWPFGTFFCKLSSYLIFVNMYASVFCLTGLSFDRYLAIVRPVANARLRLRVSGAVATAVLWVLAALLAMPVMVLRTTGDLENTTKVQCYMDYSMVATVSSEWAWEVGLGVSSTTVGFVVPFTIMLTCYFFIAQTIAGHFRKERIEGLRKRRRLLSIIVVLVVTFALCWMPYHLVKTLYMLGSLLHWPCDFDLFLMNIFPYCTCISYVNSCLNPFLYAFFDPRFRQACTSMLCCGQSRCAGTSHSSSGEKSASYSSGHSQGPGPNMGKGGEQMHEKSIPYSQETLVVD

| Compound | EC50 [nM] |
| --- | --- |
| (1R,2S)-1-(5-chloropyrimidin-2-yl)-N-(4-(4,6-dimethoxypyrimidin-5-yl)-5-((R)-6-oxaspiro[2.5]octan-1-yl)-4H-1,2,4-triazol-3-yl)-1-methoxypropane-2-sulfonamide or (1R,2S)-1-(5-chloropyrimidin-2-yl)-N-(4-(4,6-dimethoxypyrimidin-5-yl)-5-((S)-6-oxaspiro[2.5]octan-1-yl)-4H-1,2,4-triazol-3-yl)-1-methoxypropane-2-sulfonamide [Example 102.0] | 160 |
| COc1ncnc(OC)c1-n1c(NS(=O)(=O)[C@@H](C)[C@H](OC)c2ncc(Cl)cn2)nnc1[C@H]1CC[C@@H]1C (single isomer, unassigned) [Example 187.0, (1R,2S)-1-(5-chloropyrimidin-2-yl)-N-(4-(4,6-dimethoxypyrimidin-5-yl)-5-((1S,2S)-2-methylcyclobutyl)-4H-1,2,4-triazol-3-yl)-1-methoxypropane-2-sulfonamide or (1R,2S)-1-(5-chloropyrimidin-2-yl)-N-(4-(4,6-dimethoxypyrimidin-5-yl)-5-((1R,2R)-2-methylcyclobutyl)-4H-1,2,4-triazol-3-yl)-1-methoxypropane-2-sulfonamide] | 8.8 |
| (1R,2S)-1-(5-chloropyrimidin-2-yl)-N-(5-((R)-2,2-dimethylcyclopropyl)-4-(tetrahydro-2H-pyran-4-yl)-4H-1,2,4-triazol-3-yl)-1-methoxypropane-2-sulfonamide or (1R,2S)-1-(5-chloropyrimidin-2-yl)-N-(5-((S)-2,2-dimethylcyclopropyl)-4-(tetrahydro-2H-pyran-4-yl)-4H-1,2,4-triazol-3-yl)-1-methoxypropane-2-sulfonamide [Example 21.0] | 480 |
| COc1ncnc(OC)c1-n1c(NS(=O)(=O)[C@@H](C)[C@H](C)c2ncc(C)cn2)nnc1C1CCCC1 [Example 18.0, (2S,3R)-N-(5-cyclopentyl-4-(4,6-dimethoxypyrimidin-5-yl)-4H-1,2,4-triazol-3-yl)-3-(5-methylpyrimidin-2-yl)butane-2-sulfonamide] | 2.1 |
| COc1cccc(OC)c1-n1c(NS(=O)(=O)[C@@H](C)[C@H](OC)c2ncc(Cl)cn2)nnc1[C@H]1C[C@H](F)C1 (single isomer, unassigned) [Example 151.0, (1R,2S)-1-(5-chloropyrimidin-2-yl)-N-(4-(2,6-dimethoxyphenyl)-5-((1r,3S)-3-fluorocyclobutyl)-4H-1,2,4-triazol-3-yl)-1-methoxypropane-2-sulfonamide or (1R,2S)-1-(5-chloropyrimidin-2-yl)-N-(4-(2,6-dimethoxyphenyl)-5-((1r,3R)-3-fluorocyclobutyl)-4H-1,2,4-triazol-3-yl)-1-methoxypropane-2-sulfonamide] | 5.4 |
| COc1ncnc(OC)c1-n1c(NS(=O)(=O)[C@@H](C)[C@H](OC)c2ncc(Cl)cn2)nnc1C1CCC1 [Example 7.0, (1R,2S)-1-(5-chloro-2-pyrimidinyl)-N-(5-cyclobutyl-4-(4,6-dimethoxy-5-pyrimidinyl)-4H-1,2,4-triazol-3-yl)-1-methoxy-2-propanesulfonamide] | 66 |
| (2S,3R)-3-(5-chloropyrimidin-2-yl)-N-(5-((R)-2,2-difluorocyclopropyl)-4-(2,6-dimethoxyphenyl)-4H-1,2,4-triazol-3-yl)butane-2-sulfonamide or (2S,3R)-3-(5-chloropyrimidin-2-yl)-N-(5-((S)-2,2-difluorocyclopropyl)-4-(2,6-dimethoxyphenyl)-4H-1,2,4-triazol-3-yl)butane-2-sulfonamide [Example 220.0] | 39 |
| COc1ncnc(OC)c1-n1c(NS(=O)(=O)[C@@H](C)[C@H](OC)c2ncc(Cl)cn2)nnc1[C@H]1CC[C@@H](OC)CC1 (single isomer, unassigned) [Example 174.0, (1R,2S)-1-(5-chloropyrimidin-2-yl)-N-(4-(4,6-dimethoxypyrimidin-5-yl)-5-((1s,4R)-4-methoxycyclohexyl)-4H-1,2,4-triazol-3-yl)-1-methoxypropane-2-sulfonamide or (1R,2S)-1-(5-chloropyrimidin-2-yl)-N-(4-(4,6-dimethoxypyrimidin-5-yl)-5-((1r,4S)-4-methoxycyclohexyl)-4H-1,2,4-triazol-3-yl)-1-methoxypropane-2-sulfonamide] | 1200 |
| COc1cccc(OC)c1-n1c(NS(=O)(=O)[C@@H](C)[C@@H](OC(C)C)c2ncc(C)cn2)nnc1[C@@H]1CCC[C@@H]1OC (single isomer, unassigned) [Example 234.0] | 12 |
| COc1cccc(OC)c1-n1c(NS(=O)(=O)[C@@H](C)[C@H](OC)c2ncc(Cl)cn2)nnc1C12CC(C1)C2 [Example 217.0] | 7.4 |
| COc1ncnc(OC)c1-n1c(NS(=O)(=O)[C@@H](C)[C@H](OC)c2ncc(Cl)cn2)nnc1[C@H]1CC[C@@H]1F (single isomer, unassigned) [Example 182.0, (1R,2S)-1-(5-chloropyrimidin-2-yl)-N-(4-(4,6-dimethoxypyrimidin-5-yl)-5-((1R,2S)-2-fluorocyclobutyl)-4H-1,2,4-triazol-3-yl)-1-methoxypropane-2-sulfonamide or (1R,2S)-1-(5-chloropyrimidin-2-yl)-N-(4-(4,6-dimethoxypyrimidin-5-yl)-5-((1S,2R)-2-fluorocyclobutyl)-4H-1,2,4-triazol-3-yl)-1-methoxypropane-2-sulfonamide] | 10 |
| COc1cccc(OC)c1-n1c(NS(=O)(=O)[C@@H](C)[C@H](OC)c2ncc(Cl)cn2)nnc1C1CCCC1 [Example 241.0, (1R,25)-1-(5-chloro-2-pyrimidinyl)-N-(5-cyclopentyl-4-(2,6-dimethoxyphenyl)-4H-1,2,4-triazol-3-yl)-1-methoxy-2-propanesulfonamide] | 1.2 |
| COc1ncnc(OC)c1-n1c(NS(=O)(=O)[C@@H](C)[C@H](OC)c2ncc(Cl)cn2)nnc1[C@H]1CC1(F)F (single isomer, unassigned) [Example 100.0, (1R,2S)-1-(5-chloropyrimidin-2-yl)-N-(5-((R)-2,2-difluorocyclopropyl)-4-(4,6-dimethoxypyrimidin-5-yl)-4H-1,2,4-triazol-3-yl)-1-methoxypropane-2-sulfonamide or (1R,2S)-1-(5-chloropyrimidin-2-yl)-N-(5-((S)-2,2-difluorocyclopropyl)-4-(4,6-dimethoxypyrimidin-5-yl)-4H-1,2,4-triazol-3-yl)-1-methoxypropane-2-sulfonamide] | 140 |
| COc1cccc(OC)c1-n1c(NS(=O)(=O)[C@@H](C)[C@@H](OC(C)C)c2ncc(C)cn2)nnc1[C@@H]1CCC(F)(F)C1 (mixture of isomers) [Example 232.0, (1S,2S)-N-(5-((1R)-3,3-difluorocyclopentyl)-4-(2,6-dimethoxyphenyl)-4H-1,2,4-triazol-3-yl)-1-(5-methyl-2-pyrimidinyl)-1-(2-propanyloxy)-2-propanesulfonamide and (1S,2S)-N-(5-((1S)-3,3-difluorocyclopentyl)-4-(2,6-dimethoxyphenyl)-4H-1,2,4-triazol-3-yl)-1-(5-methyl-2-pyrimidinyl)-1-(2-propanyloxy)-2-propanesulfonamide] | 42 |
